Entries after “also recorded” stand apart in the source; their conditions may differ.
Assays:
[1] = Stability test with excess of sulfur-containing competitors (radio-TLC); type: physicochemical
Experimental: (§1) After pH-adjustment of the hydrochloric acid solution of [197(m)Hg]HgCl2(aq) (˜55 MBq, 20 μl, pH 1), by addition of 0.5 M HEPES buffer (pH 8, 200 μl), EtOH (200 μl), 6 M NaOH(aq) (11 μl), and 1 M NaOH(aq) (2 μl), a 1 mg/ml acetonitrile solution of 2 (12 μl, 14 nmol) was added. This solution (pH 6, 445 μl) was mixed at 50° C. for 1 h. The radiochemical yield of 3* was determined by radio-TLC (iTLC ACN+0.1% TFA, RP-18 TLC 9:1 ACN: H2O+0.1% TFA) as >95%. Purification and solvent change were carried out with a C8 cartridge (500 mg). After washing with water the major product was eluted with 7:3 EtOH:H2O from the cartridge. The last 2 fractions contained ˜16 MBq and ˜10 MBq respectively. The ˜16 MBq fraction had 3×200 μl extracted (˜4 MBq each). These fractions then had 1 competitor added each (1 mg/ml, 10 μl): tris(2-mercaptoethyl)ammonium oxalate, glutathione and Na2S. The mixtures were left at rt and checked by radio-TLC after 5 min, 1 h and 2 d, the only degradation observed was ˜4% after 2 d in the Na2S mixture. The ˜10 MBq fraction was divided into 2×500 μl. The first lot was used to test the stability of 3* in the highly aqueous solvent system necessary for biodistribution studies, this was diluted from 70% EtOH(aq) to ˜10% EtOH(aq) with brine (3.5 ml). […]

[2] = Human serum stability assay (SDS-PAGE autoradiograph); type: in vitro ADME; details: incubated with human serum 1 h at 37° C., pH 7.4, non-reducing SDS-PAGE
Experimental: FIGS. 4A and 4B show stability testing for compound 3*, namely the analysis of ^197(m)Hg-incorporation into human serum proteins by SDS-PAGE (20% SDS-polyacrylamide gel autoradiograph (FIG. 4A), showing 197(m)Hg-labeled bands, and Coomassie staining (FIG. 4B), showing bands of human serum proteins; Lane 1: ^197(m)>Hg-radiolabeled bispidine 3*. Lane 2: ^197(m)Hg-radiolabeled EDTA. M: molecular-weight size marker).
Human serum “off the clot” (5 ml) stored at −20° C. was slowly thawed on ice and filtered using syringe filters with a pore size of 0.2 μm. Two aliquots of filtered serum (2×220 μl) were mixed with 1 M HEPES/NaOH buffer (pH 7.4, 2×45 μl). Separately, 2×200 μl solution (1:1 EtOH:H2O, pH 6) of 3* (˜4 MBq) and 197(m)HgCl2/EDTA (˜5 MBq, 10 μg EDTA) had 1 M HEPES/NaOH buffer (pH 8.0, 2×20 μl) added to increase solution pH to 7.4. Then 135 μl of each 197(m)Hg-radiolabeled sample was added to one of the previously prepared serum/buffer solutions (265 μl) and incubated for 1 h at 37° C. 50 μl aliquots were then taken and mixed with 50 μl of 2× Laemmli sample buffer (Bio-Rad Laboratories), N.B. no reducing agent was added and the samples were not heated. The mixtures were then analyzed by non-reducing SDS-PAGE with acrylamide concentrations of 5% in the stacking gel and 20% in the resolving gel. 2 μl of each sample were loaded into each gel well. […]

[3] = Biodistribution in healthy male Wistar rats; type: in vivo
Source text: FIG. 5 show biodistribution of compound 3* in healthy male Wistar rats (^197(m)HgCl2: n=4, 3*: n=8; ˜300 kBq per animal; all other organs measured well below 1% ID/g).

[4] = Stability in highly aqueous solvent system for biodistribution studies; type: physicochemical; details: diluted from 70% EtOH(aq) to ~10% EtOH(aq) with brine
Experimental: as §1

[5] = Volatility test; type: physicochemical; details: 70% EtOH(aq), 50° C., dry nitrogen stream 1 h
Experimental: as §1

CCCC[C@]1(O)C2(c3ccccc3)CN3Cc4cccc[c]4[Hg][c]4ccccc4CN(C2)C[C@]1(c1ccccc1)C3 [3*, 9-butyl-8,10-diphenyl-6,10:8,12-dimethanodibenzo[c,f][1,9]diaza[5]mercuracyclotetradecan-9-ol]
degradation observed by radio-TLC ([1]; Na2S competitor (1 mg/ml, 10 μl), rt, after 2 d): ~4% | chemical stability against sulfur-containing competitors ([1]; excess of glutathione, tris(2-mercaptoethyl)ammonium oxalate and sodium sulfide): high chemical stability | 197(m)Hg release (demetallation) and binding to serum proteins [2]: there isn't any observable protein interaction; also recorded: neither 197(m)Hg release (demetallation) nor binding to serum proteins is detectable | biodistribution, all other organs (not shown in FIG. 5) ([3]; healthy male Wistar rats, ~300 kBq per animal): below 1 % ID/g | demetallation and retention in the kidneys ([3]; healthy rats, biodistribution and SPECT): no indication of demetallation and retention in the kidneys | organ / renal clearance ([3]; healthy rats, normal micturition during a 24 h period): good organ clearance; also recorded: good renal clearance | stability of the solution by radio-TLC [4]: good stability | loss of activity by evaporation (volatility) [5]: no observable loss by evaporation

From US20210228748A1, “IN VIVO STABLE HG-197(M) COMPOUNDS, METHOD FOR THE PRODUCTION THEREOF AND USE THEREOF IN NUCLEAR MEDICAL DIAGNOSTICS AND ENDORADIONUCLIDE THERAPY (THERANOSTICS)” (HELMHOLTZ-ZENTRUM DRESDEN - […].V., priority 2017, published 2021)
